Experimental data as given in PubChem BioAssay (NCI).
Where “and” joins values, the source holds several entries; their conditions need not be identical. Equal values may be shown once.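 Each compound was tested at five concentrations against cells in 96-well plates for 48 hours. At the GI50, growth is halved. TGI: total growth inhibition.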

Assays:
Test in all cases: NCI-60 cell line screen, 48 h
K-562 leukemia = tested on: K-562 leukemia
SR leukemia = tested on: SR leukemia
SK-MEL-28 melanoma = tested on: SK-MEL-28 melanoma
OVCAR-3 ovarian = tested on: OVCAR-3 ovarian
UO-31 renal = tested on: UO-31 renal
SF-268 CNS = tested on: SF-268 CNS
NCI-H23 lung = tested on: NCI-H23 lung
KM12 colon = tested on: KM12 colon
RXF 393 renal = tested on: RXF 393 renal
OVCAR-8 ovarian = tested on: OVCAR-8 ovarian

Row | SMILES | TGI (K-562 leukemia) | TGI (SR leukemia) | TGI (SK-MEL-28 melanoma) | TGI (OVCAR-3 ovarian) | TGI (UO-31 renal) | TGI (SF-268 CNS) | TGI (NCI-H23 lung) | TGI (KM12 colon) | TGI (RXF 393 renal) | TGI (OVCAR-8 ovarian) | GI50 (SK-MEL-28 melanoma) | GI50 (OVCAR-3 ovarian) | GI50 (SF-268 CNS) | GI50 (NCI-H23 lung) | GI50 (KM12 colon) | GI50 (RXF 393 renal) | GI50 (OVCAR-8 ovarian) | GI50 (K-562 leukemia) | GI50 (SR leukemia) | GI50 (UO-31 renal)
1 | C[N+](C)(C)CC1CCCCCCCCCCC1=O (stereo not given) | > 100 µM | > 100 µM | > 100 µM | > 100 µM | > 100 µM | > 100 µM | > 100 µM | > 100 µM | > 100 µM | > 100 µM |  |  |  |  |  |  |  |  |  | 
2 | CC(=O)/C(C)=N/NC(=O)c1ccccc1O | > 100 µM | > 100 µM | > 100 µM | > 100 µM | > 10 µM | > 100 µM | > 100 µM | > 100 µM | > 100 µM | > 100 µM | > 100 µM | > 10 µM | > 100 µM | > 100 µM | > 100 µM | > 100 µM | > 100 µM |  |  | 
3 | CC(=O)CSCc1ccccn1 | 82.3 µM | 56.1 µM | > 100 µM | > 100 µM | > 100 µM | > 100 µM | > 100 µM | > 100 µM | > 100 µM | > 100 µM |  |  |  |  |  |  |  |  |  | 
4 | Cc1ccn2c(c1)nc1nc3ccccc3nc12 | > 100 µM | > 100 µM | > 100 µM | > 100 µM | > 100 µM | > 100 µM | > 100 µM | > 100 µM | > 100 µM | > 100 µM |  |  |  |  |  |  |  |  |  | 
5 | COc1cc2ncnc(Nc3ccc(C)c(O)c3)c2cc1OC | > 25 µM | > 25 µM | > 25 µM | > 25 µM | > 17.2 µM | > 25 µM | > 25 µM | > 25 µM | 19.2 µM | > 25 µM | > 25 µM | 8.94 µM | > 19.2 µM | > 25 µM | > 25 µM | 5.48 µM | 11.2 µM | 7.19 µM | > 25 µM | 1.59 µM
6 | COc1cccc2c1C(=O)c1c(O)c3c(c(O)c1C2=O)C[C@@](O)(C(C)=O)C[C@@H]3OC1OC(C)C(O)C(N)C1Br (stereo not given in full) | 1.64 µM and 1.03 µM | 0.0185 µM | 1.28 µM and 1.32 µM | 0.364 µM and 0.584 µM | 0.329 µM and 0.59 µM | 3.63 µM and 1.21 µM | 0.206 µM and 0.177 µM | 0.426 µM and 0.453 µM | 0.661 µM and 0.864 µM | 0.207 µM and 0.646 µM | 0.22 µM | 0.178 µM | 0.0365 µM | 0.0174 µM | 0.0797 µM |  | 0.0331 µM | 0.0203 µM |  | 0.134 µM
7 | NS(=O)(=O)c1ccc(N=Nc2c(O)[nH]c3ccc(-c4cnco4)cc23)cc1 | > 25 µM | > 25 µM | > 25 µM | > 25 µM | > 25 µM | > 25 µM | > 25 µM | > 23.9 µM | > 25 µM | > 25 µM | > 25 µM | > 25 µM | > 25 µM | > 25 µM | 6.86 µM | > 19.6 µM | > 19.2 µM | > 25 µM | 4.99 µM | > 25 µM
8 | O=C(N/N=C/c1ccccc1)c1c(-c2cccnc2)cnc2ccccc12 | > 100 µM | > 100 µM | > 100 µM | > 100 µM | > 100 µM | > 100 µM | > 100 µM | > 100 µM | > 100 µM | > 100 µM |  |  |  |  |  |  |  |  |  | 
9 | CCOC(=O)CC1(C(=O)OCC)c2[nH]c3ccccc3c2CCN1Cc1ccccc1 (stereo not given) | > 100 µM | 52.6 µM | 39.4 µM | 27.4 µM | 64.1 µM | 37.7 µM | 33 µM | 40.1 µM | 32.7 µM | 78.7 µM |  |  |  |  |  |  |  |  |  | 
10 | C=C1C(=O)O[C@@H]2/C=C(\C)CC/C=C(/COC(C)=O)C[C@@H](OC(C)=O)[C@@H]12 | > 33.8 µM | 7.39 µM | 23.5 µM | 14.2 µM | 22.3 µM | 33.2 µM | 32.5 µM | 34.3 µM | 24.2 µM | > 55.3 µM |  |  |  |  |  |  |  |  |  | 
